Legend:
Type in all cases: physicochemical
[1] = Sorption of quercetin from grape juice by soybean flour (HPLC-MS); settings: 5 minutes, n=1; for % Quercetin Sorbed to SF / Concentration of Quercetin in Soybean flour: Concord grape juice 50 mL, soybean flour 30 g/L
Protocol: Soybean flour (30 g/L) was added to 50 mL of Concord grape juice and mixed at room temperature for five minutes. The juice was separated from the flour by centrifugation and then filtered through a 0.22 μm syringe filter. Untreated and soybean flour-treated juice samples (n=1) were processed as described in Example 8 and the quercetin content of untreated and soybean flour-treated samples was determined by HPLC-MS. Quercetin is a polyphenolic flavonoid compound. More specifically, it is a flavonol known in the art to have anti-inflammatory and antioxidant properties, and it is expected to be useful in treating cancer. Quercetin is also known to have endurance-promoting effects.

[2] = Sorption of sesquiterpene lactones from chicory root extract to defatted soybean flour (HPLC-MS peak area); settings: chicory root water extract 50 ml, defatted soybean flour 100 g/L, 5 minutes
Protocol: Dried chicory root was ground to a powder and 25 g was extracted in 500 ml of water for three hours in a 50° C. water bath with sonication. The water extract was separated from the plant material by filtration. Defatted soybean flour was mixed for 5 minutes with 50 ml of the chicory root extract at a concentration of 100 g/L followed by centrifugation (10 minutes, 15,000 rpm) and filtration of the supernatant. Untreated and soybean flour-treated chicory root extract were subjected to HPLC-MS; the injection volume for each sample was 10 μl. The amounts of the dihydrolactucin, lactucopicrin and dihydrolactucopicrin compounds present in the chicory root extract sorbed to the soybean flour were determined by calculating the percent decrease in peak area before and after treatment of the chicory extract with soybean flour.

[3] = Sorption of caffeine from green tea by defatted soybean flour (HPLC-MS); settings: green tea after SFDF 30 g/L, n=1
Protocol: The amount of caffeine in the untreated and soybean flour-treated tea samples (n=1) was also tested. […] Caffeine is a psychoactive stimulant that provides health benefits beyond the familiar increase in alertness and energy associated with coffee and tea consumption. The untreated and flour-treated tea samples described above were diluted 10 times in 0.1% acetic acid (1 μL glacial acetic acid and 1 mL water). Samples were subject to HPLC-MS and caffeine was quantified against a caffeine standard curve.

[4] = Sorption of 6-gingerol to full-fat soybean flour (HPLC-MS peak area); settings: 6-gingerol 9 μg/ml in water, full-fat soybean flour 30 g/L, 10 ml, 5 minutes
Protocol: 6-Gingerol (Sigma) was diluted in water to a concentration of 9 μg/ml. Full-fat soybean flour was added to the solution at a concentration of 30 g/L in a volume of 10 ml, mixed for 5 minutes and then centrifuged for 10 minutes at 4000 rpm. The supernatant was removed. Full-fat soybean flour was used as a control. Both the 6-gingerol solution before soybean flour treatment (i.e., plant juice) and that obtained after soybean flour treatment (i.e., plant liquor) were subjected to HPLC-MS; the injection volume for each sample was 10 μl.

[5] = Sorption of resveratrol from grape juice by soybean flour (HPLC-MS)
Protocol: Soybean flour (30 g/L) was added to 50 mL of Concord grape juice and mixed at room temperature for five minutes. The juice was separated from the flour by centrifugation and then filtered through a 0.22 μm syringe filter. The resveratrol content of the untreated and flour-treated juice samples (n=1) was quantified by HPLC-MS according to a previously published method (Wang et al., J. Agric. Food Chem., 50:431-435, 2002, the disclosure of which is incorporated herein by reference in its entirety.).
The enriched substance was prepared as follows. Briefly, 2 ml of untreated or soybean flour-treated grape juice sample was mixed with 20 ml of methanol overnight and samples were then centrifuged at 2280 g for 5 minutes and the methanol portion was removed. The solid residue was washed with an additional 10 ml of methanol. Methanol supernatants were combined and evaporated using a rotary evaporator and the methanol-free samples were diluted in 10 ml of water for enzymatic hydrolysis with 30 mg β-D-glucosidase (2.3 units/mg). Each sample was then extracted four times with 7 ml of water-saturated ethyl acetate. Ethyl acetate extracts were combined and evaporated to dryness under vacuum using a rotary evaporator. Residues were dissolved in 1 ml of methanol/0.5% formic acid (7:3; v/v) for LC-MS analysis. Standards of resveratrol were prepared for LC-MS to generate standard curves and quantify the levels of each compound in juice samples.

[6] = Concord grape juice 50 mL, soybean flour 30 g/L, 5 minutes, n=1

Question: With `O=c1c(O)c(-c2ccc(O)c(O)c2)oc2cc(O)cc(O)c12` [Quercetin] as the compound, how does the “Quercetin in Grape Juice” value ([1]; Concord grape juice 50 mL after soybean flour 30 g/L) read?
Answer: 519 ng/mL

Question: What about the “% Quercetin Sorbed to SF” value [1] of the same compound?
Answer: 74%

Question: And the “Concentration of Quercetin in Soybean flour” value [1]?
Answer: 49.3 µg/g

Question: What about the “% Quercetin Sorbed to SF” value ([1]; listed as quercetin) of the same compound?
Answer: about 74%

Question: What about the “Concentration of Quercetin in Soybean flour” value ([1]; listed as quercetin) of the same compound?
Answer: approximately 49.3 μg/g

Question: Which “% of compound sorbed by soybean flour from chicory root extract (percent decrease in peak area)” value [2] does the source give for `CC1=C2C(=O)C=C(CO)[C@@H]2[C@H]2OC(=O)[C@@H](C)[C@@H]2[C@H](OC(=O)Cc2ccc(O)cc2)C1` [dihydrolactucopicrin] here?
Answer: 80%

Question: With `Cn1c(=O)c2c(ncn2C)n(C)c1=O` [caffeine] as the compound, how does the “Caffeine Concentration” value [3] read?
Answer: 383.1 mg/L

Question: For `CCCCC[C@H](O)CC(=O)CCc1ccc(O)c(OC)c1` [6-gingerol, 6-Gingerol], which “% of 6-gingerol sorbed by soybean flour (percent decrease in peak area)” value [4] is on record?
Answer: 63%

Question: With `Oc1ccc(C=Cc2cc(O)cc(O)c2)cc1` [Resveratrol] as the compound, how does the “Bound resveratrol (amount)” value ([5]; 1.5 g soybean flour in 50 mL grape juice) read?
Answer: 88.8 mg

Question: And the “Resveratrol in Grape Juice” value ([5]; Concord grape juice 50 mL after soybean flour 30 g/L, 5 minutes, n=1)?
Answer: 325 ng/mL

Question: And the “% Resveratrol Sorbed to SF” value [5, 6]?
Answer: 85%

Question: What about the “Concentration of Resveratrol in SF” value [5, 6] of the same compound?
Answer: 59.2 µg/g

Question: With lactucopicrin as the compound, how does the “% of compound sorbed by soybean flour from chicory root extract (percent decrease in peak area)” value [2] read?
Answer: 100%

Source: patent publication US10646529B2, “Methods of obtaining natural products from the comestible fluids and methods of use” (BOARD OF TRUSTEES, RUTGERS, THE STATE UNIVERSITY OF NEW …, priority 2010, dated 2020)
